Results on 52 molecules are retold here after patent US6972296B2, “Carboxylic acid derivatives that inhibit the binding of integrins to their receptors” (Encysive Pharmaceuticals Inc., priority 1999, dated 2005).

Each structure is given as a SMILES string.

In the test the target is T1, α4β1 integrin (Homo sapiens, UniProt P05556+P13612).
T1 construct: endogenous in cells; host or cells: Ramos cells
T1 sequence (P13612 34-1032): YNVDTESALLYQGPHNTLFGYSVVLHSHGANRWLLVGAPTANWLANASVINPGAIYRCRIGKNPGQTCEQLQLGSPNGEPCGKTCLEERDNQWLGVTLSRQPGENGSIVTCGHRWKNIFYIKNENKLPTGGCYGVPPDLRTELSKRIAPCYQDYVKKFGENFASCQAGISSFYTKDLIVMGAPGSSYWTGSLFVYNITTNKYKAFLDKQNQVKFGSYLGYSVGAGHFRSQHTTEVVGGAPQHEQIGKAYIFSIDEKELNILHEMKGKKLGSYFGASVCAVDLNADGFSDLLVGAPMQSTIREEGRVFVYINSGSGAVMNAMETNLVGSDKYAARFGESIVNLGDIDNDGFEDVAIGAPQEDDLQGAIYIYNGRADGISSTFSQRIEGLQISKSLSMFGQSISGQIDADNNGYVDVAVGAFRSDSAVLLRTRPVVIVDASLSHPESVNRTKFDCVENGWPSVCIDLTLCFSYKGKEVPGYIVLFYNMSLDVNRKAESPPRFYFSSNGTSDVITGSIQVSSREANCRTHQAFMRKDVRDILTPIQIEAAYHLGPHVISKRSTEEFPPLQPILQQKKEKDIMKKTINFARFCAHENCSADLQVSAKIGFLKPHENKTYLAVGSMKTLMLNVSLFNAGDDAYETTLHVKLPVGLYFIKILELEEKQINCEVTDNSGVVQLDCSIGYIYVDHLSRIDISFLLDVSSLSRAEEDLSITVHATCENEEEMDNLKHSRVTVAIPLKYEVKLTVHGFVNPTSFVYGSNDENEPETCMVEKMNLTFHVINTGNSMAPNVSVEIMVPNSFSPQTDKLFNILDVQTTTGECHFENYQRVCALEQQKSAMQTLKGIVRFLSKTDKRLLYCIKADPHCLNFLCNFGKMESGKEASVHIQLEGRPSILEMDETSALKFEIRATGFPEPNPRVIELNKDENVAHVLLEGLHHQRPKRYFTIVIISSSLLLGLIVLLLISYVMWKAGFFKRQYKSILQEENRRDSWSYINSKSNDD
T1 sequence (P05556 21-798): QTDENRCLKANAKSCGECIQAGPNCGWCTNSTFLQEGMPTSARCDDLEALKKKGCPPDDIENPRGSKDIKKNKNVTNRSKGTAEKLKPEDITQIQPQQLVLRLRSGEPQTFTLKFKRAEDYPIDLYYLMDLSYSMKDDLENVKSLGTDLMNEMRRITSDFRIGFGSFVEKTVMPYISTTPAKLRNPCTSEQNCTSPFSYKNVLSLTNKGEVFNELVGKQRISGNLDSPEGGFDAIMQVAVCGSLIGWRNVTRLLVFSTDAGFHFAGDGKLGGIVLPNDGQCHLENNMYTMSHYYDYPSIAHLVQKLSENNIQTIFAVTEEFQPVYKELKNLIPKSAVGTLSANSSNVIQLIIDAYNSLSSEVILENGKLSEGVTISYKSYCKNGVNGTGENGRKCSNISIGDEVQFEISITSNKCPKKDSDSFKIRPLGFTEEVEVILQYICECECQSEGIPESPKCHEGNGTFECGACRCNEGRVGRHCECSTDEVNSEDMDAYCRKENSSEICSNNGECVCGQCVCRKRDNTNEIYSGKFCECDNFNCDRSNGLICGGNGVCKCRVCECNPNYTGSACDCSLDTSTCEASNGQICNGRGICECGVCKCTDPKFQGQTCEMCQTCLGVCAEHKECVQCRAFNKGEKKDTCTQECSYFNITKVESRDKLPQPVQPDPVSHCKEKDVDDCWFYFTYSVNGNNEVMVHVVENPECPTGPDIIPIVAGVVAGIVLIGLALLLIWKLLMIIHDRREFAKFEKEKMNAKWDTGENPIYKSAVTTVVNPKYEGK
Kind of test: Adhesion of calcein-labeled Ramos cells to CS1 (fibronectin) peptide conjugated ovalbumin. It is filed as cell-based. The settings on record: Table 7; Ramos cell adhesion to CS1 conjugated ovalbumin; dose required to give 50% inhibition. The gist of the method:
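Calcein AM-labelled Ramos cells (2.5×10^5/well) with compound, up to 100 μM, added to plates coated with CS1 peptide–ovalbumin (0.5 μg/ml) and blocked with 3% BSA. Binding buffer TBS pH 7.5 with 1 mM each MgCl2, CaCl2, MnCl2; 30 min, 37 °C. After washes, adherent cells lysed and read fluorometrically; […].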
The term IC50 denotes the midpoint of a concentration-inhibition curve. Regarding `O=C(O)CC(NC(=O)Nc1c(O)c2c(n(Cc3ccccc3Cl)c1=O)CCC2)c1ccc(-c2ccccc2)cc1` (stereo not shown), the IC50 was 0.03 µM.
In the case of `Cc1cn(Cc2c(C)cccc2Cl)c(=O)c(NC(=O)NC(CC(=O)O)c2ccc(S(C)(=O)=O)cc2)c1O` (stereo not shown) it was 0.043 µM.
Consider `O=C(O)CC(NC(=O)Nc1c(O)c2c(n(Cc3ccccc3Cl)c1=O)CCC2)c1ccco1` (stereo not shown), for which the IC50 is 0.005 µM.
As to `Cc1cn(Cc2ccccc2Cl)c(=O)c(NC(=O)NC(CC(=O)O)c2ccco2)c1O` (stereo not shown), the IC50 was 0.004 µM.
In the case of `Cc1ccc(C(CC(=O)O)NC(=O)Nc2c(O)c(C)cn(Cc3ccccc3Cl)c2=O)o1` (stereo not shown) it was 0.02 µM.
Turning to `CCOc1cccc(Cl)c1Cn1cc(C)c(O)c(NC(=O)NC(CC(=O)O)c2ccco2)c1=O` (stereo not shown), the IC50 was 0.008 µM.
In the case of `Cc1cn(Cc2ccccc2Cl)c(=O)c(NC(=O)NC(CC(=O)O)c2ccc(C3CC3)cc2)c1O` (stereo not shown) it was 0.035 µM; in that of `Cc1ccc([C@H](Cc2nnn[nH]2)NC(=O)Nc2c(O)c(C)cn(Cc3ccccc3Cl)c2=O)cc1`, 6 µM.
In the case of `C[C@H](CC(=O)O)NC(=O)Nc1c(O)c2c(n(Cc3ccccc3Cl)c1=O)CCC2` it was 0.015 µM; in that of `O=C(O)C[C@H](NC(=O)Nc1c(O)c2c(n(Cc3ccccc3Cl)c1=O)CCC2)c1cccc(-c2ccccc2)c1`, 0.017 µM; in that of `CCOc1ncc([C@H](CC(=O)O)NC(=O)Nc2c(O)c3c(n(Cc4ccccc4Cl)c2=O)CCC3)c(OCC)n1`, 0.015 µM.
Take `O=C(O)C[C@H](NC(=O)Nc1c(O)c2c(n(Cc3ccccc3Cl)c1=O)CCC2)c1cc(C(F)(F)F)cc(C(F)(F)F)c1`: the IC50 was 0.13 µM.
As for `Cc1ccc([C@H](CC(=O)O)NC(=O)Nc2c(O)c(C)cn(Cc3cc(C(F)(F)F)ccc3Cl)c2=O)cc1`, the IC50 was 0.006 µM.
The same measure for `Cc1ccc([C@H](CC(=O)O)NC(=O)Nc2c(O)c(C)cn(Cc3cc(F)ccc3Cl)c2=O)cc1`: 0.005 µM; for `CCOc1cccc([C@H](CC(=O)O)NC(=O)Nc2c(O)c3c(n(Cc4c(Cl)cccc4OCC)c2=O)CCC3)c1`: 0.002 µM; for `CCOc1cccc([C@H](CC(=O)O)NC(=O)Nc2c(O)c(C)cn(Cc3c(Cl)cccc3OCC(C)C)c2=O)c1`: 0.014 µM.
In the case of `Cc1cccc(Cl)c1Cn1c2c(c(O)c(NC(=O)N[C@@H](CC(=O)O)c3ccc4c(c3)CCC4)c1=O)CCC2` it was 0.01 µM; in that of `CCCOc1cccc(Cl)c1Cn1cc(C)c(O)c(NC(=O)N[C@@H](CC(=O)O)c2cccc(OCC)c2)c1=O`, 0.005 µM; in that of `O=C(O)C[C@H](NC(=O)Nc1c(O)c2c(n(Cc3ccccc3Cl)c1=O)CCC2)c1ccc2c(c1)CCC2`, 0.008 µM.
Consider `O=C(O)C[C@H](NC(=O)Nc1c(O)c2c(n(Cc3ccccc3Cl)c1=O)CCC2)c1ccc(C(F)(F)F)cc1`, for which the IC50 is 0.018 µM.
In the case of `O=C(O)C[C@H](NC(=O)Nc1c(O)c2c(n(Cc3ccccc3Cl)c1=O)CCC2)c1cccc(C(F)(F)F)c1` it was 0.01 µM; in that of `COc1ccc([C@H](CC(=O)O)NC(=O)Nc2c(O)c(C)cn(Cc3ccccc3Cl)c2=O)cc1C`, 0.009 µM; in that of `COc1ccccc1-c1cccc([C@H](CC(=O)O)NC(=O)Nc2c(O)c(C)cn(Cc3ccccc3Cl)c2=O)c1`, 0.015 µM.
The same measure for `Cc1cn(Cc2ccccc2Cl)c(=O)c(NC(=O)N[C@@H](CC(=O)O)c2cccc3ccn(C)c23)c1O`: 0.03 µM.
In the case of `COc1cccc(OC)c1-c1ccc([C@H](CC(=O)O)NC(=O)Nc2c(O)c(C)cn(Cc3ccccc3Cl)c2=O)cc1` it was 0.04 µM; in that of `COc1ccn(Cc2ccccc2Cl)c(=O)c1N(C)C(=O)N[C@@H](CC(=O)O)c1ccc(C)cc1`, 2 µM; in that of `CCCc1ccc([C@H](CC(=O)O)NC(=O)Nc2c(O)c3c(n(Cc4c(C)cccc4Cl)c2=O)CCC3)cc1`, 0.02 µM.
For `Cc1cccc(Cl)c1Cn1c2c(c(O)c(NC(=O)N[C@@H](CC(=O)O)c3ccc(C4CC4)cc3)c1=O)CCC2`, the concentration for half-maximal inhibition (IC50) was 0.019 µM.
As for `Cc1cccc(Cl)c1Cn1c2c(c(O)c(NC(=O)N[C@@H](CC(=O)O)c3cccc(OC(F)F)c3)c1=O)CCC2`, the 50% inhibitory concentration (IC50) is 0.003 µM.
In the case of `O=C(O)C[C@H](NC(=O)Nc1c(O)c2c(n(Cc3ccccc3Cl)c1=O)CCC2)c1cccc(OC(F)(F)F)c1` it was 0.01 µM; in that of `O=C(O)C[C@H](NC(=O)Nc1c(O)c2c(n(Cc3ccccc3Cl)c1=O)CCC2)c1ccc(OC(F)F)cc1`, 0.013 µM; in that of `O=C(O)C[C@H](NC(=O)Nc1c(O)c2c(n(Cc3ccccc3Cl)c1=O)CCC2)c1ccc(OC(F)(F)F)cc1`, 0.013 µM.
The same measure for `O=C(O)C[C@H](NC(=O)Nc1c(O)c2c(n(Cc3ccccc3Cl)c1=O)CCC2)c1ccc(C2CC2)cc1`: 0.025 µM; for `CCOc1cc([C@H](CC(=O)O)NC(=O)Nc2c(O)c3c(n(Cc4ccccc4Cl)c2=O)CCC3)ccc1-c1ccccc1`: 0.02 µM; for `O=C(O)C[C@H](NC(=O)Nc1c(O)c2c(n(Cc3ccccc3Cl)c1=O)CCC2)c1cc(F)cc(F)c1`: 0.007 µM.
In the case of `O=C(O)C[C@H](NC(=O)Nc1c(O)c2c(n(Cc3ccccc3Cl)c1=O)CCC2)c1cnc2ccccc2c1` it was 0.022 µM; in that of `CC(C)c1ccc([C@H](CC(=O)O)NC(=O)Nc2c(O)c3c(n(Cc4ccccc4Cl)c2=O)CCC3)cc1`, 0.017 µM.
With `COc1c(C)cc([C@H](CC(=O)O)NC(=O)Nc2c(O)c3c(n(Cc4ccccc4Cl)c2=O)CCC3)cc1C`, the IC50 was 0.011 µM.
In the case of `O=C(O)C[C@H](NC(=O)Nc1c(O)c2c(n(Cc3ccccc3Cl)c1=O)CCC2)c1cccc(OC(F)(F)C(F)F)c1` it was 0.004 µM; in that of `CCCc1ccc([C@H](CC(=O)O)NC(=O)Nc2c(O)c3c(n(Cc4ccccc4Cl)c2=O)CCC3)cc1`, 0.017 µM.
The same measure for `CCc1ccc([C@H](CC(=O)O)NC(=O)Nc2c(O)c3c(n(Cc4ccccc4Cl)c2=O)CCC3)cc1`: 0.008 µM; for `COc1ccc([C@H](CC(=O)O)NC(=O)Nc2c(O)c3c(n(Cc4ccccc4Cl)c2=O)CCC3)cc1F`: 0.003 µM.
The same measure for `CCn1c2ccccc2c2cc([C@H](CC(=O)O)NC(=O)Nc3c(O)c4c(n(Cc5ccccc5Cl)c3=O)CCC4)ccc21`: 0.013 µM; for `Cc1cn(Cc2ccccc2Cl)c(=O)c(NC(=O)N[C@@H](CC(=O)O)c2ccc(OC3CC3)cc2)c1O`: 0.006 µM; for `CCn1c2ccccc2c2cc([C@H](CC(=O)O)NC(=O)Nc3c(O)c(C)cn(Cc4ccccc4Cl)c3=O)ccc21`: 0.023 µM.
`Cc1cn(Cc2ccccc2Cl)c(=O)c(NC(=O)N[C@@H](CC(=O)O)c2cnc3ccccc3c2)c1O`: the IC50 was 0.022 µM.
In the case of `Cc1cn(Cc2ccccc2Cl)c(=O)c(NC(=O)N[C@@H](CC(=O)O)c2ccc(C(C)C)cc2)c1O` it was 0.175 µM; in that of `CCOc1cc([C@H](CC(=O)O)NC(=O)Nc2c(O)c(C)cn(Cc3ccccc3Cl)c2=O)ccc1-c1ccccc1`, 0.025 µM.
In the case of `CCCc1ccc([C@H](CC(=O)O)NC(=O)Nc2c(O)c(C)cn(Cc3ccccc3Cl)c2=O)cc1` it was 0.012 µM; in that of `CCc1ccc([C@H](CC(=O)O)NC(=O)Nc2c(O)c(C)cn(Cc3ccccc3Cl)c2=O)cc1`, 0.03 µM; in that of `Cc1ccccc1[C@H](CC(=O)O)NC(=O)Nc1c(O)c(C)cn(Cc2ccccc2Cl)c1=O`, 0.267 µM.
In the case of `Cc1cn(Cc2ccccc2Cl)c(=O)c(NC(=O)N[C@@H](CC(=O)O)c2ccc3c(c2)CCC3)c1O` it was 0.018 µM.
